Test results as given in PubChem BioAssay AID192 (DTP/NCI, 2004).
Several values for one entry are separate records, joined by “and”; a condition that tells them apart may be missing. Equal entries are not always repeated. Toxic doses and inconclusive results are not listed. The calls were made as follows: active = survival T/C of 150% or more; inactive = T/C below 125% in these data.

System: BDF1 mice, B16 melanoma ip, median survival T/C
Assay: NCI In Vivo Anticancer Drug Screen. Data for tumor model B16 Melanoma (intraperitoneal) in B6D2F1 (BDF1) mice
Conditions: endpoint: median survival time, higher = longer survival
In short: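 Transplantable tumor model; survival or tumor size measured; reported as T/C, treated over vehicle control.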

[1] = dose: 6.25 mg/kg/injection, schedule: Q01DX009 (ip), vehicle: Klucel (hydroxypropylcellulose) (HPC)
[2] = dose: 12.5 mg/kg/injection, schedule: Q01DX009 (ip), vehicle: Klucel (hydroxypropylcellulose) (HPC)
[3] = dose: 25.0 mg/kg/injection, schedule: Q01DX009 (ip), vehicle: Klucel (hydroxypropylcellulose) (HPC)
[4] = dose: 50.0 mg/kg/injection, schedule: Q01DX009 (ip), vehicle: Klucel (hydroxypropylcellulose) (HPC)
[5] = dose: 100.0 mg/kg/injection, schedule: Q01DX009 (ip), vehicle: Klucel (hydroxypropylcellulose) (HPC)
[6] = dose: 100.0 mg/kg/injection, schedule: Q04DX003 (ip), vehicle: saline with Tween-80
[7] = dose: 200.0 mg/kg/injection, schedule: Q04DX003 (ip), vehicle: saline with Tween-80
[8] = dose: 6.25 mg/kg/injection, schedule: Q01DX009 (ip), vehicle: saline with Tween-80
[9] = dose: 12.5 mg/kg/injection, schedule: Q01DX009 (ip), vehicle: saline with Tween-80
[10] = dose: 25.0 mg/kg/injection, schedule: Q01DX009 (ip), vehicle: saline with Tween-80
[11] = dose: 50.0 mg/kg/injection, schedule: Q01DX009 (ip), vehicle: saline with Tween-80
[12] = dose: 200.0 mg/kg/injection, schedule: Q01DX009 (ip), vehicle: saline with Tween-80
[13] = dose: 25.0 mg/kg/injection, schedule: Q01DX009 (ip), vehicle: saline
[14] = dose: 50.0 mg/kg/injection, schedule: Q01DX009 (ip), vehicle: saline
[15] = dose: 12.5 mg/kg/injection, schedule: Q01DX009 (ip), vehicle: saline
[16] = dose: 3.12 mg/kg/injection, schedule: Q01DX009 (ip), vehicle: saline
[17] = dose: 6.25 mg/kg/injection, schedule: Q01DX009 (ip), vehicle: saline
[18] = dose: 200.0 mg/kg/injection, schedule: Q01DX009 (ip), vehicle: Klucel (hydroxypropylcellulose) (HPC)
[19] = dose: 400.0 mg/kg/injection, schedule: Q01DX009 (ip), vehicle: Klucel (hydroxypropylcellulose) (HPC)

Measured: T/C

COc1cc2c(c(OC)c1OC)-c1c(cc3c(c1OC)OCO3)CC(C)C(C)(O)C2OC(=O)c1ccccc1 (centres undefined)
inactive: dose: 11.25 mg/kg/injection, schedule: Q01DX009 (ip), vehicle: saline + Tween-80 + alcohol 106 % of control | dose: 22.5 mg/kg/injection, schedule: Q01DX009 (ip), vehicle: saline + Tween-80 + alcohol 97 % of control | dose: 45.0 mg/kg/injection, schedule: Q01DX009 (ip), vehicle: saline + Tween-80 + alcohol 97 % of control | dose: 90.0 mg/kg/injection, schedule: Q01DX009 (ip), vehicle: saline + Tween-80 + alcohol 91 % of control

COc1cc(OC)c(/C=C/c2c3ccccc3cc[n+]2C)c(OC)c1
inactive: dose: 0.78 mg/kg/injection, schedule: Q01DX009 (ip), vehicle: saline with Tween-80 97 % of control | dose: 1.56 mg/kg/injection, schedule: Q01DX009 (ip), vehicle: saline with Tween-80 102 % of control

O=S(c1ccccc1)c1c(Cl)c(Cl)nc(Cl)c1Cl (centres undefined)
inactive: [1] 94 % of control | [2] 100 % of control

CCOC(=O)/C=C(\CBr)OC
inactive: [2] 105 % of control | [3] 93 % of control

CCC1=C(c2cc(Cl)c3ccccc3c2OCC(=O)O)OC(CC)(C(=O)c2cc(Cl)c3ccccc3c2OCC(=O)O)CC1 (centres undefined)
inactive: [3] 102 % of control | dose: 30.0 mg/kg/injection, schedule: Q01DX009 (ip), vehicle: saline with Tween-80 90 % of control | [4] 102 % of control | dose: 60.0 mg/kg/injection, schedule: Q01DX009 (ip), vehicle: saline with Tween-80 93 % of control | [5] 102 % of control | [6] 110 % of control | dose: 120.0 mg/kg/injection, schedule: Q01DX009 (ip), vehicle: saline with Tween-80 93 % of control | [7] 95 % of control | dose: 240.0 mg/kg/injection, schedule: Q01DX009 (ip), vehicle: saline with Tween-80 86 % of control

O=c1oc(-c2ccccc2Cl)nc2cc(Cl)ccc12
inactive: [3] 113 % of control | [4] 90 % of control

CCN(CC)Cc1cc2[nH]c3c4ccc(Cl)cc4ncc3c2cc1OC
inactive: [8] 95 % of control | [9] 98 % of control | [10] 98 % of control

CC1(C)COCN1COC1CCCCC1
inactive: [9] 100 % of control | [10] 105 % of control and 115 % of control | [11] 105 % of control and 119 % of control | [12] 110 % of control

C/C=C/C=C\C1OC(O)([C@H](CC)C(=O)NC/C=C/C=C(\C)[C@H](OC)C(C)C2OC(\C=C/C=C/C=C(\C)C(=O)c3c(O)ccn(C)c3=O)[C@H](O)[C@@H]2O)C(O)C(O)C1(C)C (some centres undefined)
inactive: [13] 102 % of control | [14] 89 % of control | dose: 100.0 mg/kg/injection, schedule: Q01DX009 (ip), vehicle: saline 91 % of control | dose: 200.0 mg/kg/injection, schedule: Q01DX009 (ip), vehicle: saline 97 % of control

CC(=O)NC(C=O)C(O)C(O)C(O)C(=O)O (centres undefined) (tested in a mixture with another compound)
inactive: [1] 100 % of control | [2] 107 % of control | [3] 98 % of control

CCNC(C)(C)C(SSS)c1ccco1 (centres undefined)
inactive: [2] 98 % of control | [3] 94 % of control | [4] 104 % of control

CC(C)c1ccc(O)c(O)c1
inactive: [15] 95 % of control | [10] 104 % of control | [13] 100 % of control | [14] 96 % of control

CNC(=O)ON=C1CCC(CC2CCCCC2)CC1 (centres undefined)
inactive: [3] 93 % of control | [4] 100 % of control | [5] 103 % of control

O=c1cc[nH]c(=O)[nH]1
inactive: dose: 32.0 mg/kg/injection, schedule: Q01DX009 (ip), vehicle: Klucel (hydroxypropylcellulose) (HPC) 99 % of control and 100 % of control | dose: 32.0 mg/kg/injection, schedule: Q01DX009 (ip), vehicle: saline with Tween-80 93 % of control | dose: 64.0 mg/kg/injection, schedule: Q01DX009 (ip), vehicle: Klucel (hydroxypropylcellulose) (HPC) 98 % of control and 106 % of control | dose: 64.0 mg/kg/injection, schedule: Q01DX009 (ip), vehicle: saline with Tween-80 93 % of control | dose: 128.0 mg/kg/injection, schedule: Q01DX009 (ip), vehicle: Klucel (hydroxypropylcellulose) (HPC) 101 % of control and 106 % of control | dose: 128.0 mg/kg/injection, schedule: Q01DX009 (ip), vehicle: saline with Tween-80 98 % of control | dose: 256.0 mg/kg/injection, schedule: Q01DX009 (ip), vehicle: Klucel (hydroxypropylcellulose) (HPC) 100 % of control and 102 % of control | dose: 256.0 mg/kg/injection, schedule: Q01DX009 (ip), vehicle: saline with Tween-80 90 % of control | dose: 512.0 mg/kg/injection, schedule: Q01DX009 (ip), vehicle: Klucel (hydroxypropylcellulose) (HPC) 102 % of control and 105 % of control | dose: 512.0 mg/kg/injection, schedule: Q01DX009 (ip), vehicle: saline with Tween-80 92 % of control

C/C=C(\C)C(=O)N/N=C\c1cc(Cl)cc(Cl)c1O
inactive: dose: 25.0 mg/kg/injection, schedule: Q01DX009 (ip), vehicle: olive oil, sesame oil, peanut oil 88 % of control | dose: 100.0 mg/kg/injection, schedule: Q01DX009 (ip), vehicle: olive oil, sesame oil, peanut oil 89 % of control | dose: 200.0 mg/kg/injection, schedule: Q01DX009 (ip), vehicle: olive oil, sesame oil, peanut oil 86 % of control

Oc1ccccc1C=NCC[N-]CCN=Cc1ccccc1O.[Cu+]
inactive: dose: 0.39 mg/kg/injection, schedule: Q01DX009 (ip), vehicle: Klucel (hydroxypropylcellulose) (HPC) 97 % of control | dose: 0.78 mg/kg/injection, schedule: Q01DX009 (ip), vehicle: Klucel (hydroxypropylcellulose) (HPC) 96 % of control | dose: 1.56 mg/kg/injection, schedule: Q01DX009 (ip), vehicle: Klucel (hydroxypropylcellulose) (HPC) 90 % of control

CN(C)CCCC1(C#N)c2ccccc2CCc2ccccc21
inactive: [16] 110 % of control | [17] 97 % of control | [15] 100 % of control | [13] 110 % of control

CCOC(=O)C(NC(=O)NC)C(=O)OCC
inactive: dose: 75.0 mg/kg/injection, schedule: Q01DX009 (ip), vehicle: Klucel (hydroxypropylcellulose) (HPC) 102 % of control | dose: 150.0 mg/kg/injection, schedule: Q01DX009 (ip), vehicle: Klucel (hydroxypropylcellulose) (HPC) 103 % of control | dose: 300.0 mg/kg/injection, schedule: Q01DX009 (ip), vehicle: Klucel (hydroxypropylcellulose) (HPC) 100 % of control

CCCNC1=C(N2CC2)C(=O)C(NCCC)=C(N2CC2)C1=O
inactive: dose: 1.25 mg/kg/injection, schedule: Q01DX009 (ip), vehicle: saline 108 % of control

O=C(O)C1(Cl)CC2C=CC1C2 (centres undefined)
inactive: dose: 50.0 mg/kg/injection, schedule: Q04DX003 (ip), vehicle: saline with Tween-80 105 % of control | [6] 97 % of control | [7] 88 % of control

CN(C)CCCN1c2ccccc2Sc2c(Cl)cc(Cl)cc21
inactive: [16] 97 % of control | [17] 105 % of control | [15] 102 % of control | [13] 87 % of control

CC(OC(C)c1ccccc1)c1ccccc1 (centres undefined)
inactive: [5] 113 % of control | [18] 106 % of control | [19] 103 % of control

Cc1ccc(NCC2(/N=C/c3ccccc3)OC(CO)C(O)C2O)cc1 (centres undefined)
inactive: [1] 98 % of control | [2] 109 % of control | [3] 91 % of control and 95 % of control | [4] 90 % of control and 92 % of control | [5] 93 % of control and 114 % of control | dose: 177.0 mg/kg/injection, schedule: Q01DX009 (ip), vehicle: Klucel (hydroxypropylcellulose) (HPC) 123 % of control | [18] 104 % of control | dose: 266.0 mg/kg/injection, schedule: Q01DX009 (ip), vehicle: Klucel (hydroxypropylcellulose) (HPC) 123 % of control | [19] 109 % of control

COc1cc2c(c(OC)c1OC)C(=O)/C(=C\c1ccccc1)O2
inactive: [8] 101 % of control | [9] 106 % of control | [10] 103 % of control | [11] 86 % of control

COC(=O)c1ccccc1C=C(c1ccc([N+](=O)[O-])cc1)c1ccc([N+](=O)[O-])cc1
inactive: [11] 97 % of control | dose: 100.0 mg/kg/injection, schedule: Q01DX009 (ip), vehicle: saline with Tween-80 113 % of control | [12] 91 % of control

O=C(O)C(=O)O
inactive: [17] 101 % of control | [15] 105 % of control | [13] 96 % of control and 108 % of control | [14] 95 % of control
